Laboratory results taken from ChEMBL document CHEMBL2448688, “Selection and optimization of hits from a high-throughput phenotypic screen against Trypanosoma cruzi. Exported from HEOS 25-Oct-2013. See also related datasets CHEMBL3137440 and CHEMBL3137386”.
Several values for one entry are separate records, joined by “and”; a condition that tells them apart may be missing. Equal values may be shown once.

Experiments:
in vitro [1] = settings: mouse, microsomes
Trypanosoma cruzi [2] = experiment: DNDI: Chagas in vivo at 50 mg/kg, 20 days 1x; assay type: functional, Tulahuen Swiss po
in vitro [3] = settings: rat, microsomes
in vitro [4] = settings: human, microsomes, t (1 / 2)
Trypanosoma cruzi [5] = experiment: DNDI: Chagas in vivo at 20 mg/kg, 20 days 2x; assay type: functional, Tulahuen Swiss po
Trypanosoma cruzi [6] = experiment: (§1) DNDI: Chagas in Vitro; assay type: functional, Tulahuen C4 (LacZ)
[7] = DNDI: Protein binding in mouse plasma
[8] = DNDI: Protein binding in rat plasma; assay type: ADME, cell-free; settings: read-out: % bound (converted)
in vitro [9] = settings: rat, microsomes; remark: listed apart in the source
in vitro [10] = settings: human, microsomes
Cytochrome P450 3A4 = Cytochrome P450 3A4 (Homo sapiens, UniProt P08684); experiment: DNDI: Human CYP3A4 inhibition determined using 6b-hydroxylation of testosterone
[11] = DNDI: Cytotoxicity in vitro, against rat skeletal myoblast (L-6) cells; settings: L-6 cells (skeletal myoblasts), IC50
in vitro [12] = settings: mouse, microsomes; remark: listed apart in the source
in vitro [13] = settings: mouse, microsomes; remark: listed apart in the source
Trypanosoma cruzi [14] = experiment: as §1; assay type: functional, organism-based, Tulahuen C4 (LacZ)
in vitro [15] = settings: human, microsomes, EH
in vitro [16] = settings: rat, hepatocytes
Trypanosoma cruzi [17] = experiment: DNDI: Chagas in vivo at 20 mg/kg, 20 days 1x; assay type: functional, Tulahuen Swiss po
in vitro [18] = settings: rat, hepatocytes; remark: listed apart in the source
in vitro [19] = settings: rat, microsomes; remark: listed apart in the source
Cytochrome P450 2C9 = Cytochrome P450 2C9 (Homo sapiens, UniProt P11712)
[20] = DNDI: Lipophilicity (gLogD) at pH 3; settings: buffer, pH 3, logD
[21] = DNDI: Lipophilicity (gLogD) at pH 7.4; settings: buffer, pH 7.4, logD
[22] = DNDI: Permeability in CACO-2 cells at pH 7.4 (A to B); assay type: ADME, cell-based; settings: human, Caco-2, pH 7.4
[23] = test system: Trypanosoma brucei rhodesiense; experiment: DNDI: HAT in Vitro; assay type: functional, organism-based, ATCC 30027; settings: Trypanosoma brucei, ATCC 30027
[24] = DNDI: Solubility in 0.01M HCl at pH 2 determined by nephelometry; settings: 0.01M HCl, pH 2, Kinetic
Cytochrome P450 2C19 = Cytochrome P450 2C19 (Homo sapiens, UniProt P33261)
Cytochrome P450 1A2 = target: T1, Cytochrome P450 1A2 (Homo sapiens, UniProt P05177)
T1 sequence (P05177 whole entry): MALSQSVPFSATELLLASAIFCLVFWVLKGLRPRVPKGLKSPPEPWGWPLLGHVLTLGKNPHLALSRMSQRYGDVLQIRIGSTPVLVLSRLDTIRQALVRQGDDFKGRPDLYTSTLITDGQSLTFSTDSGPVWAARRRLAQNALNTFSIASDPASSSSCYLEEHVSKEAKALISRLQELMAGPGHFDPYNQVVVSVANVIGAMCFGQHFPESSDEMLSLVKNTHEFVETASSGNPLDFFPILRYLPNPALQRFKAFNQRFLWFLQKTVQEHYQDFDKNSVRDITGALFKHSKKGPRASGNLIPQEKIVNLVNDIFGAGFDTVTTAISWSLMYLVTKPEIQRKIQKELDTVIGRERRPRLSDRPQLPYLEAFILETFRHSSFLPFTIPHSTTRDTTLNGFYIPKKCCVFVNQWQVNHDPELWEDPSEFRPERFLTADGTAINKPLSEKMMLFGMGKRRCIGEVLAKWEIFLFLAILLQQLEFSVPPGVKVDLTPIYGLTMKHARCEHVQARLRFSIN

Cytochrome P450 2D6 = Cytochrome P450 2D6 (Homo sapiens, UniProt P10635)
[25] = DNDI: Metabolism; assay type: ADME, Microsome; settings: rat, microsomes
[26] = Trypanosoma cruzi, Tulahuen C4 (LacZ)

Cytochrome P450 2C9, sequence (P11712 whole entry): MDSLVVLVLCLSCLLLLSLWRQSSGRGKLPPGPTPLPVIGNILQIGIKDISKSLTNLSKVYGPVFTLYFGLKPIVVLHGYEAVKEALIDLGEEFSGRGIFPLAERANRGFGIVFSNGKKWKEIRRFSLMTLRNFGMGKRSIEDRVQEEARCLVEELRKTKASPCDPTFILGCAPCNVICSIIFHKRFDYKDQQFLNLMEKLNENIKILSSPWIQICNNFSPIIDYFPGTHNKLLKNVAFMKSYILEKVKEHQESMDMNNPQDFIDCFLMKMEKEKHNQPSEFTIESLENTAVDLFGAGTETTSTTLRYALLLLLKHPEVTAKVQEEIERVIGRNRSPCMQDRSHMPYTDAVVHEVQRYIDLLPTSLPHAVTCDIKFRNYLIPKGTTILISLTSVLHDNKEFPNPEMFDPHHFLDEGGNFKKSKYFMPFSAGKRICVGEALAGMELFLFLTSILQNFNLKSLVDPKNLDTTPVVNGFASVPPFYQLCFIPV
Cytochrome P450 2D6, sequence (P10635 whole entry): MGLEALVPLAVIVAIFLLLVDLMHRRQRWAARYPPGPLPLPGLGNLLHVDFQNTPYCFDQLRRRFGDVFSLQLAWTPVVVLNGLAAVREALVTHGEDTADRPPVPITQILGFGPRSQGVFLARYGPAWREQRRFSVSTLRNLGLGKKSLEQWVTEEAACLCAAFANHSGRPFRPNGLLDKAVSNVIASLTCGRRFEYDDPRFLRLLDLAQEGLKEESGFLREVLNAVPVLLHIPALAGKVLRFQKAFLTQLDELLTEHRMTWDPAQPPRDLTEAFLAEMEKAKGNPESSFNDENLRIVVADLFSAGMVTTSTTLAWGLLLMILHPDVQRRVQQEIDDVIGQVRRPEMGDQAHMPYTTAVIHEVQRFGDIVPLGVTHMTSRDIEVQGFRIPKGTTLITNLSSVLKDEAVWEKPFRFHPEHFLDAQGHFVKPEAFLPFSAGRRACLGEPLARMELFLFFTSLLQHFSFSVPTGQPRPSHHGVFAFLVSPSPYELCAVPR
Cytochrome P450 3A4, sequence (P08684 whole entry): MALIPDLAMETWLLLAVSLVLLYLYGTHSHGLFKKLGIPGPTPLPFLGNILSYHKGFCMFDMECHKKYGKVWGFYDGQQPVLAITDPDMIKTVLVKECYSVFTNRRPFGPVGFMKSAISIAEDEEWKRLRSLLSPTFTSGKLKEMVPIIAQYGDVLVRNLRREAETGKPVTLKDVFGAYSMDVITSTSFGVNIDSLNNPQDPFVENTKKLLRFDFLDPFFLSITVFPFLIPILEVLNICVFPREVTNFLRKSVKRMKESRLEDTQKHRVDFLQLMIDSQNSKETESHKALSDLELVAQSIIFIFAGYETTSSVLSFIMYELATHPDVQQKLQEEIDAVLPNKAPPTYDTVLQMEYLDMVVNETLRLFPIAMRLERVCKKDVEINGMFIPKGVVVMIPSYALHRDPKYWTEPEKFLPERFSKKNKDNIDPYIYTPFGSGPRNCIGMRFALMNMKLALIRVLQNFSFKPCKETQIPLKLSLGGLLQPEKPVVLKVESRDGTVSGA
Cytochrome P450 2C19, sequence (P33261 whole entry): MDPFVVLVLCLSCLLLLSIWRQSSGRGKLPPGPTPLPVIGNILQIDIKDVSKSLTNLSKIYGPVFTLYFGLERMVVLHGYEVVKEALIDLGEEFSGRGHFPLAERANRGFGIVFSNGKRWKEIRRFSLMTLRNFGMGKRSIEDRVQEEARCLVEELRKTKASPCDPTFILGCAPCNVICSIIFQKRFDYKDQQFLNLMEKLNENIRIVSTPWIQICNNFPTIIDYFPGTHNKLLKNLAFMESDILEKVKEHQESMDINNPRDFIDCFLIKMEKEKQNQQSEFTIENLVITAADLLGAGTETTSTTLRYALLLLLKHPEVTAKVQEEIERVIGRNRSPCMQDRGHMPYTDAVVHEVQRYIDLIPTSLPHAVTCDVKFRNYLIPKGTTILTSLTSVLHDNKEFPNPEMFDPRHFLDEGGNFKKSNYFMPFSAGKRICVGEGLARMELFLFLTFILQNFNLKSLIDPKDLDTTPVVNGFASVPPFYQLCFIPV

Row | Compound | half-life (in vitro [1]) [h] | half-life (in vitro [3]) [h] | half-life (in vitro [4]) [h] | PCR cure rate (Trypanosoma cruzi [5]) [%] | Parasitemia clearance after immunosuppression (Trypanosoma cruzi [5]) [%] | Parasitemia clearance after treatment (Trypanosoma cruzi [5]) [%] | IC90 (Trypanosoma cruzi [6]) | fraction unbound [7] | fraction unbound [8] | microsomal CLint (in vitro [9]) [µL/min/mg] | microsomal CLint (in vitro [10]) [µL/min/mg] | IC50 [11] [nM] | microsomal CLint (in vitro [12]) [µL/min/mg] | IC50 (Trypanosoma cruzi [14]) | IC50 (Trypanosoma cruzi [14]; [26]) [nM] | CLhep predicted (in vitro [18]) [mL/min/kg] | also measured
1 | CO/N=C(\C)c1ccc(-n2ccnc2)c(NC(=O)c2cnn(-c3ccccn3)c2)c1 | 0.35 | 1.07 | 1.8 | 0 | 0 | 80 | 14 nM | 0.022 | 0.008 | 27 | 16 | > 100000 | 83 | 6 nM | 6.7 | 34.3 | PCR cure rate (Trypanosoma cruzi [2]): 0%; Parasitemia clearance after immunosuppression (Trypanosoma cruzi [2]): 0%; Parasitemia clearance after treatment (Trypanosoma cruzi [2]): 20%; IC90 (Trypanosoma cruzi [6]; [26]): 16 nM; IC50 (Cytochrome P450 3A4): 1400 nM; hepatic extraction ratio (in vitro [13]): 0.78; hepatic extraction ratio (in vitro [15]): 0.38; hepatic extraction ratio (in vitro [16]): 0.51; PCR cure rate (Trypanosoma cruzi [17]): 0%; Parasitemia clearance after immunosuppression (Trypanosoma cruzi [17]): 0%; Parasitemia clearance after treatment (Trypanosoma cruzi [17]): 0%; hepatic extraction ratio (in vitro [19]): 0.47
2 | N#Cc1ccc(-n2ccnc2)c(NC(=O)c2cnc(-c3ccccc3)s2)c1 | 0.933 | 1.22 | 2.53 | 0 | 0 | 100 | 20.5 nM and 47 nM and > 100 nM | 0.064 | 0.043 | 24 | 11 | > 100000 | 31 | 11.5 nM and 6.8 nM and 7 nM | 6 | 17.2 | IC50 (Cytochrome P450 2C9): > 20000 nM; chromatographic logD [20]: 2.1; chromatographic logD [21]: 2.8; Papp A→B [22]: 82 ×10⁻⁶ cm/s; IC50 [23]: > 10000 nM; solubility kinetic [24]: > 100 µg/mL; IC50 (Cytochrome P450 2C19): 15900 nM; IC50 (Cytochrome P450 1A2): > 20000 nM; IC50 (Cytochrome P450 2D6): 2700 nM; CLblood [25]: 25 mL/min/kg
